{
  "source": "paper PMC7934871",
  "about": "(JCI Insight, 2021)",
  "key": {"STAT1": {"molecular_target": "T1, STAT1 (Homo sapiens, UniProt P42224)", "T1 construct": "endogenous in cells; host or cells: U251", "assay": "Immunoprecipitation and Western blotting, STAT1", "format": "binding", "conditions": "immunoprecipitation, Western blotting, U251 cells", "description": "Figure 2 PS-acet.-STAT3-peptide specifically binds STAT3 in the nucleus. (A) Penetration of PS-acet.-STAT3 peptide and its colocalization with STAT3 protein in U251 cells are confirmed by confocal microscopy. Scale bars: 50 μm. Insets: original magnification, ×40. (B) PS-acet.-STAT3 peptide specifically binds to STAT3 protein, not STAT1 and STAT5 proteins, shown in U251 cells by immunoprecipitation followed by Western blotting (left panel). Expression of total STAT1, STAT3, and STAT5 was confirmed by Western blotting in U251 cells (input protein level, right panel).\nWhole cell lysates or tissue homogenates were prepared by using RIPA lysis buffer (50 mM Tris at pH 7.4, 150 mM NaCl, 1 mM EDTA, 0.5% NP-40, 1 mM NaF, 15% glycerol, and 20 mM β-glycerophosphate). […] Protein amounts were determined by BCA using a Thermo Fisher Scientific kit. […] The protein levels for STAT1 (sc-346, E-23), STAT3 (sc-482, C-20), STAT5 (sc-74442, A-9), Crm1 (exportin 1) (sc-5595, H-300), CAS (exportin 2) (sc-271537, H-2), exportin 5 (sc-66885, H-300), and exportin 7 (sc-98639, H-82) were determined using antibodies from Santa Cruz Biotechnology Inc. Anti–exportin 3 (exportin T, 630622, LOS1 05-1525), anti–exportin 4 (3499-1), and anti–exportin 6 (11408-1-AP) were from MilliporeSigma, Epitomics, and Proteintech, respectively. […]"}, "acetyl-STAT3": {"molecular_target": "T2, acetyl-STAT3 (Homo sapiens, UniProt P40763)", "T2 construct": "endogenous in cells; host or cells: HCT116", "assay": "Immunoprecipitation of PS-oligo and Western blotting, acetyl-STAT3", "format": "binding", "conditions": "HCT116 cells, immunoprecipitation of PS-oligo, Western blotting", "procedure": "(§1) Whole cell lysates or tissue homogenates were prepared by using RIPA lysis buffer (50 mM Tris at pH 7.4, 150 mM NaCl, 1 mM EDTA, 0.5% NP-40, 1 mM NaF, 15% glycerol, and 20 mM β-glycerophosphate). A protease inhibitor cocktail (Mini Protease Inhibitor Cocktail; Roche) and a tyrosine phosphatase inhibitor, sodium orthovanadate (Na3VO4, 1 mM), were added freshly to the lysis buffer. Protein amounts were determined by BCA using a Thermo Fisher Scientific kit. Normalized protein amounts were subjected to an SDS-PAGE and transferred onto a nitrocellulose membrane for Western blotting. Proteins were visualized with a chemiluminescent detection kit (Pierce, Thermo Fisher Scientific). The protein levels for STAT1 (sc-346, E-23), STAT3 (sc-482, C-20), STAT5 (sc-74442, A-9), Crm1 (exportin 1) (sc-5595, H-300), CAS (exportin 2) (sc-271537, H-2), exportin 5 (sc-66885, H-300), and exportin 7 (sc-98639, H-82) were determined using antibodies from Santa Cruz Biotechnology Inc. Anti–exportin 3 (exportin T, 630622, LOS1 05-1525), anti–exportin 4 (3499-1), and anti–exportin 6 (11408-1-AP) were from MilliporeSigma, Epitomics, and Proteintech, respectively. […]\nlabeled PS-acet.-STAT3 peptide. The fluorescence intensity of FAM-labeled PS-acet.-STAT3 peptide in the cells was quantified by flow cytometry. […]\nquantification of FAM. […]\nabove were assessed by qRT-PCR. […]"}, "exportins 1–6": {"tested_on": "exportins 1–6", "assay": "Immunoprecipitation of FAM-labeled peptide and Western blotting, exportins 1–6", "format": "binding, human", "conditions": "anti-FITC (FAM) immunoprecipitation, Western blotting, U251 cells", "procedure": "Data are representative of 3 independent experiments (n = 3).\nas §1"}, "p53 promoter": {"tested_on": "p53 promoter", "assay": "Luciferase reporter gene assay, p53 promoter", "format": "cell-based, human", "conditions": "HCT116, 1 μM, overnight at 37°C", "description": "Figure 3 PS-acet.-STAT3 peptide inhibits STAT3 activity and downregulates the expression of STAT3 targets. (A) Downregulation of STAT3 activity and its downstream target proteins shown in human HCT116 colorectal cancer cells by Western blotting (data represent 1 of the 3 experiments, n = 3). PO-acet.-STAT3 and PS-STAT3-K685R peptides were used in parallel as controls. (B) STAT3 inhibition regulated the expression of proliferation and apoptotic genes, assessed by real-time quantitative PCR. Data present mean ± SD, n = 3 independent experiments, 1-way ANOVA; ***P < 0.005; **P < 0.01. […] For p53 promoter assay, data represent 3 replicates in 3 independent experiments (n = 9). For cell proliferation assay, data represent 3 independent experiments. SD is shown (n = 3). One-way ANOVA; ***P < 0.005; **P < 0.01.\nA total of 1–2 × 10^6 HCT116 cells were seeded into each well of a 24-well plate (Cellstar) and transfected with a 13x RGC plasmid, with a Renilla luciferase construct (both plasmids provided by Bernhard Lüscher, RWTH, Aachen, Germany), using Lipofectamine 2000 (Invitrogen, Thermo Fisher Scientific), according to manufacturer’s instruction. On the following day, cells were treated with 1 μM of PO- and PS-acet.-STAT3 peptides at 37°C overnight. Luciferase activities were determined using the luciferase assay system (Promega)."}},
  "data": [
    {"substance": "PDIPKEEAFGK685(Ac)YCRPESQEHPC-linker-T*C*C*A*T*G*A*G*C*T*T*C*C*T*G*A*T*G*C*T [PS-acet.-STAT3 peptide]", "values": [
      {"measurement": "binding to STAT1 protein", "setting": "STAT1", "value": "not"},
      {"measurement": "binding to acetyl-STAT3", "setting": "acetyl-STAT3", "value": "directly bound"},
      {"measurement": "binding to exportins 1–6", "setting": "exportins 1–6", "value": "not"},
      {"measurement": "p53 promoter activity", "setting": "p53 promoter", "value": "significant increase"}
    ]}
  ]
}
